Assay results reported in patent US9499490B2, “Fluorophenyl pyrazol compounds” (Eli Lilly and Company, priority 2013, dated 2016).

Experiments:
[1] = system: obese DIO mice; assay: Therapeutic weight loss effect in high fat diet induced obese (DIO) mice; type: in vivo, mouse; conditions: oral 30 mg/kg twice a day
Description: To determine the therapeutic weight loss effects and improvement of metabolic parameters, compounds from the invention are tested in the high fat diet (HFD) feeding induced obese mouse model (DIO mice). In this model, C57/B16J male mouse is fed with the 60% HFD (D12492i, Research Diets) for 16˜28 weeks to establish obesity with body weight reaching around 50 g. The mice will gradually increase the body weight to about 50 g and maintain that weight in this obese state. Test compound (via the vehicle of 0.5% HEC plus 0.25% Tween-80 at 5 mL/kg) is administered orally to the obese DIO mice once or twice daily throughout the study duration. The dose-dependent weight loss of obese DIO mice for Example 1 of the oral treatment at 30 mg/kg twice a day is about 6%, 10%, and 14% weight loss compared to the vehicle group at day 7, day 14, and day 21 respectively. The data support that the compound of Example 1 is associated with desired weight loss and offers therapeutic weight loss effect.

[2] = target: T1, mouse MetAP2 (Mus musculus, UniProt O08663); assay: Enzymatic activity assay of mouse MetAP2 (LC/MS detection of product peptide); type: biochemical; conditions: full length mouse MetAP2, substrate 150 μM, 40 min; read-out: IC50 value for mMetAP2
T1 construct: Full length MetAP2 (human and mouse) and MetAP1 (human) proteins are generated from Sf9 cells; made in house; host or cells: Sf9 insect cells
T1 sequence (O08663 whole entry): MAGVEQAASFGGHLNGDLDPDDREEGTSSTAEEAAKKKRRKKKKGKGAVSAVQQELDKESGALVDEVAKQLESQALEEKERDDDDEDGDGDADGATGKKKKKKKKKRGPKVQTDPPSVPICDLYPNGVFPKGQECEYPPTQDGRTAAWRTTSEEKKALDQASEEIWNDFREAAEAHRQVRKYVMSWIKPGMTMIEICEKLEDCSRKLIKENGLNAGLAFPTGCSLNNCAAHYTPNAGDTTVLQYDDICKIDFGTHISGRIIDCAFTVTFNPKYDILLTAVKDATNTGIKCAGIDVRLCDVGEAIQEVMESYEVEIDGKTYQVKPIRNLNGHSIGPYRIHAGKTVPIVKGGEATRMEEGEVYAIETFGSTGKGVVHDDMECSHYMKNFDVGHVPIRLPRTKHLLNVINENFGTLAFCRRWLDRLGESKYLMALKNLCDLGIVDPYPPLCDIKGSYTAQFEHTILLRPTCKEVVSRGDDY
Description: (§1) Full length MetAP2 (human and mouse) and MetAP1 (human) proteins are generated from Sf9 cells using procedure similar to that described in Biochemistry 2003, 42, 5035-5042. MetAP2 and MetAP1 are purified in the presence of 5 mM MnCl2 and 2 mM CoCl2 respectively, and stored at −78° C. before use.
(§2) Compound inhibition of the catalytic activity of human and mouse MetAP2 in the present invention is monitored by the formation of the product peptide (Gly-Lys-Val-Lys-Val-Gly-Val-Asn-Gly) from the substrate peptide (Met-Gly-Lys-Val-Lys-Val-Gly-Val-Asn-Gly) via LC/MS detection. The reaction is typically conducted by incubating the enzyme, testing compound and substrate (150 μM) in a 100 μl assay buffer (50 mM HEPES, 100 mM NaCl, 50 mg/mL BSA, 0.17 mM Triton X-100 at pH 7.5) for 40 min. After the reaction is stopped by the addition of 200 μl acetonitrile, the levels of product and remaining substrate are quantified on a mass spectrometer. The activity of human MetAP1 is monitored by the formation of the fluorescent product rhodmine-methionine from the substrate methionine-rhodamine-methionine on a spectrophotometer with the excitation light at 460 nm and emission light at 535 nm. The reaction is typically conducted by incubating the enzyme, testing compound and substrate (50 μM) in a 100 μl assay buffer (50 mM HEPES, 100 mM NaCl, 0.1% BSA, 0.05% Tween-20, 50 μM CoCl2) for 60 min. […]

[3] = target: T2, human MetAP2 (Homo sapiens, UniProt P50579); assay: Enzymatic activity assay of human MetAP2 (LC/MS detection of product peptide); type: biochemical; conditions: full length human MetAP2, substrate 150 μM, 40 min; read-out: IC50 value for hMetAP2
T2 construct: Full length MetAP2 (human and mouse) and MetAP1 (human) proteins are generated from Sf9 cells; made in house; host or cells: Sf9 insect cells
T2 sequence (P50579 whole entry): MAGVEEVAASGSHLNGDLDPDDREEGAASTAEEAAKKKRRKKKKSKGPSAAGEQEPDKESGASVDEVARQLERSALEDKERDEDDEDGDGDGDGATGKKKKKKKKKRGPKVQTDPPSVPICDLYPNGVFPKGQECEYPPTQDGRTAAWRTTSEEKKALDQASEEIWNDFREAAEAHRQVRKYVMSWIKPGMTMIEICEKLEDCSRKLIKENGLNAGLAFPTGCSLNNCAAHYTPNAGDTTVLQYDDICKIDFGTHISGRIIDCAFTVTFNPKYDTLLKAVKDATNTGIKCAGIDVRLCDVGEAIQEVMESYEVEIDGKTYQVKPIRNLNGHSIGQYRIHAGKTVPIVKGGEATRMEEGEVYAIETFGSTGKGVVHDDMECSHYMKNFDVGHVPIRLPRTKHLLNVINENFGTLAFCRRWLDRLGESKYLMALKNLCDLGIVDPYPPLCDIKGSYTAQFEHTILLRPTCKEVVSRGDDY
Description: as §1, §2

[4] = target: T3, human MetAP1 (Homo sapiens, UniProt P53582); assay: Enzymatic activity assay of human MetAP1 (fluorescent rhodamine substrate); type: biochemical; conditions: full length human MetAP1, substrate 50 μM, 60 min
T3 construct: Full length MetAP2 (human and mouse) and MetAP1 (human) proteins are generated from Sf9 cells; made in house; host or cells: Sf9 insect cells
Description: as §1, §2

With `NC(=O)NCc1cccc(Oc2c[nH]nc2-c2ccc(F)cc2)c1` [Example 1, [3-[[3-(4-Fluorophenyl)-1H-pyrazol-4-yl]oxy]phenyl]methylurea] the “weight loss compared to the vehicle group” value ([1]; day 7) was “about 6%”, the “weight loss compared to the vehicle group” value ([1]; day 14) was about 10% and the “weight loss compared to the vehicle group” value ([1]; day 21) was about 14%. For the same molecule, the IC50 [2] was 36 nM, the IC50 [3] was 11 nM and the IC50 [4] was over 30000 nM.
